Experimental data reported in PMC12621043, “Un-LOK-ing a New Approach for Conformational Selective Targeting of STK10 (LOK)” (ACS Medicinal Chemistry Letters, 2025).

Legend:
DAPK1 (DAPK1A) = target: T1, DAPK1 (DAPK1A) (Homo sapiens, UniProt P53355); assay: DSF Tm panel; format: binding; details: 10 μM compound
T1 construct: purchased in-house DSF kinase panel (SGC-style construct names; the trailing letter is the construct ID)

SRPK1A = target: T2, SRPK1A (Homo sapiens, UniProt Q96SB4); assay: DSF Tm panel; format: binding; details: 10 μM compound
T2 construct: purchased in-house DSF kinase panel (SGC-style construct names; the trailing letter is the construct ID)
T2 sequence (Q96SB4 80-653): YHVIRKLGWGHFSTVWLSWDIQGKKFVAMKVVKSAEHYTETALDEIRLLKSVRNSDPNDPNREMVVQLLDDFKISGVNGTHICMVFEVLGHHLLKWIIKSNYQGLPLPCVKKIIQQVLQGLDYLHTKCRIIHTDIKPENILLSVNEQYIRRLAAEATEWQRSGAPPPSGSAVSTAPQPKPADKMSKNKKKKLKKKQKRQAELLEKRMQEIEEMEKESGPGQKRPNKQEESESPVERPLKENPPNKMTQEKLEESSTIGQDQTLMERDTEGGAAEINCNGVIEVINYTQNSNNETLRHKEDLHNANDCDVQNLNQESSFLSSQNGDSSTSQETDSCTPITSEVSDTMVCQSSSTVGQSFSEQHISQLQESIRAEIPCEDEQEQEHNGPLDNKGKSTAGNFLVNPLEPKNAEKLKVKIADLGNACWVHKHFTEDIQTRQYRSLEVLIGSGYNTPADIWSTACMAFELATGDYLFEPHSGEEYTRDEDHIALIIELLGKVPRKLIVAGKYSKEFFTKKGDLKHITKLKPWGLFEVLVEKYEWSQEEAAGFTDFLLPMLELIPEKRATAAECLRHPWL

CAMKK2B = target: T3, CAMKK2B (Homo sapiens, UniProt Q96RR4); assay: DSF Tm panel; format: binding; details: 10 μM compound
T3 construct: purchased in-house DSF kinase panel (SGC-style construct names; the trailing letter is the construct ID)
T3 sequence (Q96RR4 161-449): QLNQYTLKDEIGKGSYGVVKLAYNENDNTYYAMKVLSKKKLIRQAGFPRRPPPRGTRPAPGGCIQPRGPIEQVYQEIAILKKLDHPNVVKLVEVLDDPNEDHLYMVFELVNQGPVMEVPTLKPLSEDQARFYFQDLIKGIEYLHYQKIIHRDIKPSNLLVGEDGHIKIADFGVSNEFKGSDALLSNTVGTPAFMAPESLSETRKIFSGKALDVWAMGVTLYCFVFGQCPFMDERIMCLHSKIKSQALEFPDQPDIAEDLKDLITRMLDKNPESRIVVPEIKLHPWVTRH

FESA = target: T4, FESA (Homo sapiens, UniProt P07332); assay: DSF Tm panel; format: binding; details: 10 μM compound
T4 construct: purchased in-house DSF kinase panel (SGC-style construct names; the trailing letter is the construct ID)
T4 sequence (P07332 whole entry): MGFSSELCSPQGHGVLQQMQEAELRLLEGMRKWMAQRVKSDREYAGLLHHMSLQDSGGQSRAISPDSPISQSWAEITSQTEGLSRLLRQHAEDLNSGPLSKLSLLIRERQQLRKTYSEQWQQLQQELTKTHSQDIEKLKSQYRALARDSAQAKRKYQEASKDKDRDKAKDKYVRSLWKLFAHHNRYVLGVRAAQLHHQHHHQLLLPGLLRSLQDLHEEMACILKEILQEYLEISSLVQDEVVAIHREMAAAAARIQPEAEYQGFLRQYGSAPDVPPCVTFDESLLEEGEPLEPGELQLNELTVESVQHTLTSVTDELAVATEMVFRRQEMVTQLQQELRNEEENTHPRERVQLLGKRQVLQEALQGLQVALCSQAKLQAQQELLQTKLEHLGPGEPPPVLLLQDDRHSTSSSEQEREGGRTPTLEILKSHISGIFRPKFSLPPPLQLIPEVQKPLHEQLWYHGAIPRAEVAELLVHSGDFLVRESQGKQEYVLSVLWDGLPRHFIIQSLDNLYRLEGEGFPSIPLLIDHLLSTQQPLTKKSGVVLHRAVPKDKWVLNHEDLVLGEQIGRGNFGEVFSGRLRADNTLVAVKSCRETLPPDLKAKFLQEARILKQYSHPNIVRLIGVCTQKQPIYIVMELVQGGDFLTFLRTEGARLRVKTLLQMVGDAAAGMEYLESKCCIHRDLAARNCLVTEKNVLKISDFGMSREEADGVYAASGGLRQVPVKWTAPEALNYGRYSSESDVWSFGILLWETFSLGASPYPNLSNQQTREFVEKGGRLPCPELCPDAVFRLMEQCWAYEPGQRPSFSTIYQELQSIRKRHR

MARK3A = target: T5, MARK3A (Homo sapiens, UniProt P27448); assay: DSF Tm panel; format: binding; details: 10 μM compound
T5 construct: purchased in-house DSF kinase panel (SGC-style construct names; the trailing letter is the construct ID)
T5 sequence (P27448 56-307): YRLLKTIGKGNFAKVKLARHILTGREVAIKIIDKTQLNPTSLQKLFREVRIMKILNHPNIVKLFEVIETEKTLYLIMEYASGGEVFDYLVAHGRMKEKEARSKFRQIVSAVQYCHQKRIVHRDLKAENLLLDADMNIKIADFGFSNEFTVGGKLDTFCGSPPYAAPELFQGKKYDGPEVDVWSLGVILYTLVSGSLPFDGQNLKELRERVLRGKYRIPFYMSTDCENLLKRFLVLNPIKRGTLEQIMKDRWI

UKL3A (ULK3A) = target: T6, UKL3A (ULK3A) (Homo sapiens, UniProt Q6PHR2); assay: DSF Tm panel; format: binding; details: 10 μM compound
T6 construct: purchased in-house DSF kinase panel (SGC-style construct names; the trailing letter is the construct ID)
T6 sequence (Q6PHR2 1-279): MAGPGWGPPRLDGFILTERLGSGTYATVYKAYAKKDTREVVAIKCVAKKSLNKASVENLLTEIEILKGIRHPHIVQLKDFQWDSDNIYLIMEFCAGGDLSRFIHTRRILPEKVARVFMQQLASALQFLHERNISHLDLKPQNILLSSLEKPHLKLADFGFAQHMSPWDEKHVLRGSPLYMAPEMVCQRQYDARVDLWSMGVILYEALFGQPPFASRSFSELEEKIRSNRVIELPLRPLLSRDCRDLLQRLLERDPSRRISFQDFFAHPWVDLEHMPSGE

STK4 (STK4A) = target: T7, STK4 (STK4A) (Homo sapiens, UniProt Q13043); assay: DSF Tm panel; format: binding; details: 10 μM compound
T7 construct: purchased in-house DSF kinase panel (SGC-style construct names; the trailing letter is the construct ID)
T7 sequence (Q13043 1-311): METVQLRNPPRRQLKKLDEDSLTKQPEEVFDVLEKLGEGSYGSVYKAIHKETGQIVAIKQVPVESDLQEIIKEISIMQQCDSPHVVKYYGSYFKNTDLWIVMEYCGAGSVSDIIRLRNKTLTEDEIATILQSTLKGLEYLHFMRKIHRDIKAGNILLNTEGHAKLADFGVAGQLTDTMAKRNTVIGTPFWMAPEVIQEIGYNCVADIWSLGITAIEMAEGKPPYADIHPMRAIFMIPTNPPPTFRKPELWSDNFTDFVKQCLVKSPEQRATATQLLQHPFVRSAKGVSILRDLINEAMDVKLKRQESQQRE

MAPK13A = target: T8, MAPK13A (Homo sapiens, UniProt O15264); assay: DSF Tm panel; format: binding; details: 10 μM compound
T8 construct: purchased in-house DSF kinase panel (SGC-style construct names; the trailing letter is the construct ID)
T8 sequence (O15264 1-365): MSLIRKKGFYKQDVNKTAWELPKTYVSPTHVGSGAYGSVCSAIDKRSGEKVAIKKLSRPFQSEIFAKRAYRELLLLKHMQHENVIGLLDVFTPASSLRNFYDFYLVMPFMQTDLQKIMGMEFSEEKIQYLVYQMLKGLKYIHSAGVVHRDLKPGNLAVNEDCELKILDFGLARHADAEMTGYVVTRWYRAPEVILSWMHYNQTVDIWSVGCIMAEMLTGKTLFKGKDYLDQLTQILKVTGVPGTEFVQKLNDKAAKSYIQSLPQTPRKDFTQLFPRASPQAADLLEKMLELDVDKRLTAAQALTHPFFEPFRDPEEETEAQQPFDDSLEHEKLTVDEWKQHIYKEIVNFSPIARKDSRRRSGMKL

MAP2K6A = target: T9, MAP2K6A (Homo sapiens, UniProt P52564); assay: DSF Tm panel; format: binding; details: 10 μM compound
T9 construct: purchased in-house DSF kinase panel (SGC-style construct names; the trailing letter is the construct ID)
T9 sequence (P52564 53-314): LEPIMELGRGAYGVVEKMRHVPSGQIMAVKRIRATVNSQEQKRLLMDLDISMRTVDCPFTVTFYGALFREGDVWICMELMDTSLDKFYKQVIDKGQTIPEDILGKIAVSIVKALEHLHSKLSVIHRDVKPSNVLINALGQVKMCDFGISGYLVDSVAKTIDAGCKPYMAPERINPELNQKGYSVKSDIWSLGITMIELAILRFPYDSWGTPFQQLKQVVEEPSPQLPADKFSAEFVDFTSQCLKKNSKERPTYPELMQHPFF

PCTK1A = target: T10, PCTK1A (Homo sapiens, UniProt Q00536); assay: DSF Tm panel; format: binding; details: 10 μM compound
T10 construct: purchased in-house DSF kinase panel (SGC-style construct names; the trailing letter is the construct ID)
T10 sequence (Q00536 163-478): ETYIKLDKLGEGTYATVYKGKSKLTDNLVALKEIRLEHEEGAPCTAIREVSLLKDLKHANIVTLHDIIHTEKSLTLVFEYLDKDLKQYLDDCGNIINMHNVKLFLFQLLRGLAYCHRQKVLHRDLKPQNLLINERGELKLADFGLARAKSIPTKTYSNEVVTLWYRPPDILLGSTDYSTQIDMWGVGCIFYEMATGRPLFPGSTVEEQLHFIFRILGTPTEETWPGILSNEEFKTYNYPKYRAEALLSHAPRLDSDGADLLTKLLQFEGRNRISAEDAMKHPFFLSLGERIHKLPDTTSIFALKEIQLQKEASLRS

SLK = SLK (Homo sapiens, UniProt Q9H2G2); assay: PhosphoSens in vitro activity assay; format: biochemical; details: ATP 150 μM
EPHA7A = target: T11, EPHA7A (Homo sapiens, UniProt Q15375); assay: DSF Tm panel; format: binding; details: 10 μM compound
T11 construct: purchased in-house DSF kinase panel (SGC-style construct names; the trailing letter is the construct ID)
T11 sequence (Q15375 590-899): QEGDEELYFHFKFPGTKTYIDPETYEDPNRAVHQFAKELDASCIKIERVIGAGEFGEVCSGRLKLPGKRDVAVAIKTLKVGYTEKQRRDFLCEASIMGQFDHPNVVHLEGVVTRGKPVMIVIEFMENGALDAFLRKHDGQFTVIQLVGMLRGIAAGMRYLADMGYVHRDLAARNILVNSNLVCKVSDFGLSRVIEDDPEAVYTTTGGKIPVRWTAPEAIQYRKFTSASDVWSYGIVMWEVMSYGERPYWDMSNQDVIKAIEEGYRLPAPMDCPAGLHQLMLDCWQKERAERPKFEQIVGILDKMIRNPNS

MAPK1A = target: T12, MAPK1A (Homo sapiens, UniProt P28482); assay: DSF Tm panel; format: binding; details: 10 μM compound
T12 construct: purchased in-house DSF kinase panel (SGC-style construct names; the trailing letter is the construct ID)
T12 sequence (P28482 whole entry): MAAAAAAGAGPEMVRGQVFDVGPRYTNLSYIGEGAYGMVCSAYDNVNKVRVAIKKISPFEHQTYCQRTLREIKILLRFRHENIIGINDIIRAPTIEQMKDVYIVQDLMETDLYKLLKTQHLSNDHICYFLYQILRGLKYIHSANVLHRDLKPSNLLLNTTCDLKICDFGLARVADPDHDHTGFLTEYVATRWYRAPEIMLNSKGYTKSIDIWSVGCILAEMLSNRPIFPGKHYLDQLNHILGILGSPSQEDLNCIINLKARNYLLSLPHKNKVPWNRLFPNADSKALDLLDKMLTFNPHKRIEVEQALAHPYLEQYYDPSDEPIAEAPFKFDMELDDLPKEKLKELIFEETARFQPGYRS

AKT3A = target: T13, AKT3A (Homo sapiens, UniProt Q9Y243); assay: DSF Tm panel; format: binding; details: 10 μM compound
T13 construct: purchased in-house DSF kinase panel (SGC-style construct names; the trailing letter is the construct ID)
T13 sequence (Q9Y243 148-479): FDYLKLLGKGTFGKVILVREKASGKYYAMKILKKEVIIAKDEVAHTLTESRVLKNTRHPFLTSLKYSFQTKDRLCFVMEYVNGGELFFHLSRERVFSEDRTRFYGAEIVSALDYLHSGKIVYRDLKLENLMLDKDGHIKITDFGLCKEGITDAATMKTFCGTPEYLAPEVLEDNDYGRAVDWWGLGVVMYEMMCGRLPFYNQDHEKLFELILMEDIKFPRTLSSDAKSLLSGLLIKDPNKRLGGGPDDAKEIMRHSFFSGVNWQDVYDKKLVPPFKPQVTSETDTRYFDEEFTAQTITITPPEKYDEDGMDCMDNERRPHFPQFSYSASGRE

RPS6KA1A = assay: DSF Tm panel; format: binding; details: 10 μM compound
CDC42BPAA = assay: DSF Tm panel; format: binding; details: 10 μM compound
CDK2A = target: T14, CDK2A (Homo sapiens, UniProt P24941); assay: DSF Tm panel; format: binding; details: 10 μM compound
T14 construct: purchased in-house DSF kinase panel (SGC-style construct names; the trailing letter is the construct ID)

VRK1A = target: T15, VRK1A (Homo sapiens, UniProt Q99986); assay: DSF Tm panel; format: binding; details: 10 μM compound
T15 construct: purchased in-house DSF kinase panel (SGC-style construct names; the trailing letter is the construct ID)
T15 sequence (Q99986 1-396): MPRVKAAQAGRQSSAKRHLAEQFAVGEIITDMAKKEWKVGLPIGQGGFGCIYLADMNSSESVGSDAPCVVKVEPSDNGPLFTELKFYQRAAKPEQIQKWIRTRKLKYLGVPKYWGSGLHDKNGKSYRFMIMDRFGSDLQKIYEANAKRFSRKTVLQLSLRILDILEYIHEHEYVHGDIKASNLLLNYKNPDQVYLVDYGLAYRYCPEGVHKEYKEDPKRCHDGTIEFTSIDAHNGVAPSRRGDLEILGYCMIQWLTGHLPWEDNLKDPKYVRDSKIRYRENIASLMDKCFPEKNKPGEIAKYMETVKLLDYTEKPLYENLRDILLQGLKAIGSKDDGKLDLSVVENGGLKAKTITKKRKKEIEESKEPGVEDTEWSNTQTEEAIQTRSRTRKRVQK

ABL1 (ABL1A) = target: T16, ABL1 (ABL1A) (Homo sapiens, UniProt P00519); assay: DSF Tm panel; format: binding; details: 10 μM compound
T16 construct: purchased in-house DSF kinase panel (SGC-style construct names; the trailing letter is the construct ID)
T16 sequence (P00519 229-512): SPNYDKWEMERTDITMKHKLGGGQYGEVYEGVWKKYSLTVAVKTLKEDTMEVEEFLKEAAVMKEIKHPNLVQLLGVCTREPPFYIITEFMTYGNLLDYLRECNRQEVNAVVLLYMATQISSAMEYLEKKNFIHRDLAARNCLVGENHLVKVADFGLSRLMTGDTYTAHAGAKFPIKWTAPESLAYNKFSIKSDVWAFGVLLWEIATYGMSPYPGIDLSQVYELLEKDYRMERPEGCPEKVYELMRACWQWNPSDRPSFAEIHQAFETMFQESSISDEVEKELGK

T1 sequence (P53355 1-285): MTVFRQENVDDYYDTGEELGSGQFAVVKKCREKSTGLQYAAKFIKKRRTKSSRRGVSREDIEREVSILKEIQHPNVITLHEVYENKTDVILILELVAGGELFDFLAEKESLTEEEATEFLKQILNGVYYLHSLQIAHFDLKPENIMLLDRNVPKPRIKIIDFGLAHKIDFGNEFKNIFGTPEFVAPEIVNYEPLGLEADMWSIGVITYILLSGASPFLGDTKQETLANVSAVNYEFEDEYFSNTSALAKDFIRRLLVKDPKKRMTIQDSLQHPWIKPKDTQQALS

SMILES	ΔTm at 10 µM (DAPK1 (DAPK1A))	ΔTm at 10 µM (SRPK1A)	ΔTm at 10 µM (CAMKK2B)	ΔTm at 10 µM (FESA)	ΔTm at 10 µM (MARK3A)	ΔTm at 10 µM (UKL3A (ULK3A))	ΔTm at 10 µM (STK4 (STK4A))	ΔTm at 10 µM (MAPK13A)	ΔTm at 10 µM (MAP2K6A)	ΔTm at 10 µM (PCTK1A)	IC50 (SLK)	ΔTm at 10 µM (EPHA7A)	ΔTm at 10 µM (MAPK1A)	ΔTm at 10 µM (AKT3A)	ΔTm RPS6KA1A (RPS6KA1A)	ΔTm CDC42BPAA (CDC42BPAA)	ΔTm at 10 µM (CDK2A)	ΔTm at 10 µM (VRK1A)	ΔTm at 10 µM (ABL1 (ABL1A))
O=C(NCc1ccccc1)Nc1ccc2cc1OCCOCCNc1ccn3ncc-2c3n1 [compound 16]	1.3 °C	0 °C	3.8 °C	3 °C	0.7 °C	6.8 °C	4.9 °C	0.1 °C	1.4 °C	1.8 °C	9.36 ± 1.77 µM	-0.1 °C	-0.1 °C	0 °C	1,4 °C	-0,2 °C	4.1 °C	-0.4 °C	1.2 °C
O=C(NCc1ccccc1Cl)Nc1ccc2cc1OCCOCCNc1ccn3ncc-2c3n1 [compound 17]	0.1 °C	0 °C	3.3 °C	0.2 °C	0.8 °C	3.2 °C	4.1 °C	0.5 °C	0.9 °C	2.5 °C	6.83 ± 1.58 µM	0.4 °C	0.3 °C	-0.3 °C	1,2 °C	0,1 °C	2.9 °C	0.1 °C	1.7 °C
O=C(NCc1cccc(Cl)c1)Nc1ccc2cc1OCCOCCNc1ccn3ncc-2c3n1 [compound 18]	0.3 °C	-0.3 °C	3.1 °C	0.1 °C	0.7 °C	4.6 °C	4.5 °C	0.7 °C	1.2 °C	1.3 °C	5.93 ± 0.76 µM	0.8 °C	0.7 °C	-0.4 °C	0,7 °C	0,0 °C	4.3 °C	0.3 °C	1.8 °C
O=C(NCc1ccc(Cl)cc1)Nc1ccc2cc1OCCOCCNc1ccn3ncc-2c3n1 [compound 19]	-0.1 °C	0.2 °C	3.4 °C	0.4 °C	0.2 °C	4.6 °C	5.5 °C	0.6 °C	1.1 °C	1.3 °C	7.16 ± 1.12 µM	0.4 °C	0.1 °C	-0.4 °C	0,4 °C	0,0 °C	5.6 °C	0.1 °C	1.8 °C
O=C(NCc1ccc(Cl)cc1Cl)Nc1ccc2cc1OCCOCCNc1ccn3ncc-2c3n1 [compound 20]	0.2 °C	0.6 °C	1.2 °C	0.5 °C	1.7 °C	2.3 °C	3.6 °C	0.4 °C	1.1 °C	1.1 °C	7.44 ± 1.64 µM	1 °C	0.8 °C	0.4 °C	0,9 °C	0,7 °C	2.5 °C	0.4 °C	2.2 °C
O=C(NCc1ccc(Cl)cc1F)Nc1ccc2cc1OCCOCCNc1ccn3ncc-2c3n1 [compound 21]	0.3 °C	0.4 °C	3.5 °C	0.6 °C	1.5 °C	4.6 °C	4.9 °C	0.6 °C	1.3 °C	1.1 °C	8.88 ± 1.41 µM	1.9 °C	0.3 °C	-0.3 °C	1,1 °C	0,4 °C	5.9 °C	0.9 °C	2.3 °C
O=C(NCc1ccc(C(F)(F)F)cc1)Nc1ccc2cc1OCCOCCNc1ccn3ncc-2c3n1 [compound 28]	0.4 °C	0 °C	1.8 °C	1 °C	1.4 °C	4.3 °C	4.3 °C	-0.5 °C	1.1 °C	1 °C		3.5 °C	0.9 °C	0.4 °C	0,2 °C	0,9 °C	3.3 °C	0.6 °C	0.9 °C
COc1ccc(CNC(=O)Nc2ccc3cc2OCCOCCNc2ccn4ncc-3c4n2)cc1 [compound 31]	0.3 °C	0.1 °C	1.8 °C	0.8 °C	0.2 °C	6.1 °C	4.1 °C	-1.3 °C	1.2 °C	1.9 °C		1.8 °C	0.9 °C	1.6 °C		0,0 °C	3.3 °C	0.2 °C	1.7 °C
CN1CCN(C(=O)Nc2ccc3cc2OCCOCCNc2ccn4ncc-3c4n2)CC1 [compound 35]	0.7 °C	0.2 °C	2.9 °C	-0.2 °C	0.5 °C	2.7 °C	0.9 °C	0.4 °C	0.4 °C	1 °C		-1.4 °C	0.3 °C	0 °C	0,7 °C	-0,6 °C	1.4 °C	-0.1 °C	1.4 °C
